# Measurements published in patent US8575156B2, “Cyclic inhibitors of 11β-hydroxysteroid dehydrogenase 1” (Vitae Pharmaceuticals, Inc., priority 2007, dated 2013).
# Where two headings read alike, the source gives them in different places.
# Target: 11β-HSD1 (Homo sapiens, UniProt P28845)
# Assay: biochemical
# Conditions: for IC50: IC50 Range
# [1] = Biological Test Example 1, microsomes from CHO cells overexpressing human 11β-HSD1
# [2] = read-out: Average % inhibition at 100 nM
# [3] = read-out: Average % inhibition at 100 nM, Biological Test Example 1, 100 nM
# Chain of 11β-HSD1 (P28845 whole entry): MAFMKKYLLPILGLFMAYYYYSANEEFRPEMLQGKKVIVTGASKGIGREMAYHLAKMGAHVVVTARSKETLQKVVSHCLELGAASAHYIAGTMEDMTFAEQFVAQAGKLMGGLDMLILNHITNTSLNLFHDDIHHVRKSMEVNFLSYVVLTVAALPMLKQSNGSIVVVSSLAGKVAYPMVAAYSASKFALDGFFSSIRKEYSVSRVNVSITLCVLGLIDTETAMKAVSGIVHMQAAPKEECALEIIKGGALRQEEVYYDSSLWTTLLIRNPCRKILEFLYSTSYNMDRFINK
IC50 [1],inhibition at 0.1 µM [3],SMILES,inhibition at 0.1 µM [2],IC50
< 100 nM,96%,"O=C1OC(CCCO)(c2ccc(F)cc2)CCN1Cc1c(Cl)cccc1Cl (stereo not drawn) [EXAMPLE 347, 3-(2,6-dichlorobenzyl)-6-(4-fluorophenyl)-6-(3-hydroxypropyl)-1,3-oxazinan-2-one]",–,–
< 100 nM,48.9%,"O=C1OC(CCCO)(c2ccc(F)cc2)CCN1Cc1c(F)cccc1F (stereo not drawn) [EXAMPLE 348, 3-(2,6-difluorobenzyl)-6-(4-fluorophenyl)-6-(3-hydroxypropyl)-1,3-oxazinan-2-one]",–,–
< 100 nM,89.8%,"O=C1OC(CCCO)(c2ccc(F)cc2)CCN1Cc1c(F)cccc1Cl (stereo not drawn) [EXAMPLE 349, 3-(2-chloro-6-fluorobenzyl)-6-(4-fluorophenyl)-6-(3-hydroxypropyl)-1,3-oxazinan-2-one]",–,–
< 100 nM,91.8%,"C=CCC1(c2ccc(F)cc2)CCN(Cc2ccccc2Br)C(=O)O1 (stereo not drawn) [EXAMPLE 350, 6-allyl-3-(2-bromobenzyl)-6-(4-fluorophenyl)-1,3-oxazinan-2-one]",–,–
< 100 nM,83.1%,"O=C1OC(CCCO)(c2ccc(F)cc2)CCN1Cc1ccccc1Br (stereo not drawn) [EXAMPLE 351, 3-(2-bromobenzyl)-6-(4-fluorophenyl)-6-(3-hydroxypropyl)-1,3-oxazinan-2-one]",–,–
< 100 nM,60.8%,"COC(=O)c1ccccc1CN1CC[C@](CCCO)(c2ccc(F)cc2)OC1=O [EXAMPLE 352, (R)-methyl 2-((6-(4-fluorophenyl)-6-(3-hydroxypropyl)-2-oxo-1,3-oxazinan-3-yl)methyl)benzoate]",–,–
< 100 nM,95.2%,"C[C@@H](c1cccc(Br)c1)N1CC[C@](CCCO)(c2ccc(F)cc2)OC1=O [EXAMPLE 354, (R)-3-((S)-1-(3-bromophenyl)ethyl)-6-(4-fluorophenyl)-6-(3-hydroxypropyl)-1,3-oxazinan-2-one]",–,–
< 100 nM,92%,"C[C@@H](c1cccc(Br)c1)N1CC[C@](CC(C)(C)O)(c2ccc(F)cc2)OC1=O [EXAMPLE 356, (S)-3-((S)-1-(3-bromophenyl)ethyl)-6-(4-fluorophenyl)-6-(2-hydroxy-2-methylpropyl)-1,3-oxazinan-2-one]",–,–
< 100 nM,60.7%,"C[C@@H](c1cccc(Br)c1)N1CC[C@](CCC(C)(C)O)(c2ccc(F)cc2)OC1=O [EXAMPLE 357, (R)-3-((S)-1-(3-bromophenyl)ethyl)-6-(4-fluorophenyl)-6-(3-hydroxy-3-methylbutyl)-1,3-oxazinan-2-one]",–,–
< 100 nM,84%,"C[C@@H](c1cccc(Br)c1)N1CC[C@](CCC(N)=O)(c2ccc(F)cc2)OC1=O [EXAMPLE 358, 3-((R)-3-((S)-1-(3-bromophenyl)ethyl)-6-(4-fluorophenyl)-2-oxo-1,3-oxazinan-6-yl)propanamide]",–,–
< 100 nM,67.5%,"C[C@@H](c1cccc(Br)c1)N1CC[C@](CCCNS(C)(=O)=O)(c2ccc(F)cc2)OC1=O [EXAMPLE 359, N-(3-((R)-3-((S)-1-(3-bromophenyl)ethyl)-6-(4-fluorophenyl)-2-oxo-1,3-oxazinan-6-yl)propyl)methanesulfonamide]",–,–
< 100 nM,97%,"C[C@@H](c1cccc(Cl)c1)N1CC[C@](CCCO)(c2ccc(F)cc2)OC1=O [EXAMPLE 360, (R)-3-((S)-1-(3-chlorophenyl)ethyl)-6-(4-fluorophenyl)-6-(3-hydroxypropyl)-1,3-oxazinan-2-one]",–,–
< 100 nM,67.4%,"C[C@@H](c1cccc(C#N)c1)N1CC[C@](CCCOC(=O)C(F)(F)F)(c2ccc(F)cc2)OC1=O [EXAMPLE 361, 3-((R)-3-((S)-1-(3-cyanophenyl)ethyl)-6-(4-fluorophenyl)-2-oxo-1,3-oxazinan-6-yl)propyl 2,2,2-trifluoroacetate]",–,–
< 100 nM,93.4%,"C=CC[C@]1(c2ccc(F)cc2)CCN([C@@H](C)c2cccc(C(=O)OC)c2)C(=O)O1 [EXAMPLE 362, Methyl 3-((S)-1-((R)-6-allyl-6-(4-fluorophenyl)-2-oxo-1,3-oxazinan-3-yl)ethyl)benzoate]",–,–

# Continued, compound first:
SMILES,IC50 [1],inhibition at 0.1 µM [3],inhibition at 0.1 µM [2],IC50
"C[C@@H](c1ccc(CC(C)(C)O)cc1)N1CC[C@](CCCO)(c2ccccc2)OC1=O [EXAMPLE 312, (R)-3-((S)-1-(4-(2-hydroxy-2-methylpropyl)phenyl)ethyl)-6-(3-hydroxypropyl)-6-phenyl-1,3-oxazinan-2-one]",< 100 nM,–,85.7%,–
"COc1ccc([C@H](C)N2CC[C@](CCCNS(C)(=O)=O)(c3ccc(F)cc3)OC2=O)cc1 [EXAMPLE 314, N-(3-((R)-6-(4-fluorophenyl)-3-((S)-1-(4-methoxyphenyl)ethyl)-2-oxo-1,3-oxazinan-6-yl)propyl)methanesulfonamide]",< 100 nM,96.5%,–,–
"COc1ccc([C@H](C)N2CC[C@](CCC(N)=O)(c3ccccc3)OC2=O)cc1 [EXAMPLE 315, 3-((R)-3-((S)-1-(4-methoxyphenyl)ethyl)-2-oxo-6-phenyl-1,3-oxazinan-6-yl)propanamide]",< 100 nM,93.2%,–,–
"C[C@@H](C1CCCCC1)N1CC[C@](CCC(N)=O)(c2ccc(F)cc2)OC1=O [EXAMPLE 317, 3-((R)-3-((S)-1-cyclohexylethyl)-6-(4-fluorophenyl)-2-oxo-1,3-oxazinan-6-yl)propanamide]",< 100 nM,87.5%,–,–
"C[C@@H](C1CCCCC1)N1CC[C@](CCNS(C)(=O)=O)(c2ccc(F)cc2)OC1=O [EXAMPLE 318, N-(2-((S)-3-((S)-1-cyclohexylethyl)-6-(4-fluorophenyl)-2-oxo-1,3-oxazinan-6-yl)ethyl)methanesulfonamide]",< 100 nM,83.8%,–,–
"C[C@@H](C1CCCCC1)N1CC[C@](CCCNS(C)(=O)=O)(c2ccc(F)cc2)OC1=O [EXAMPLE 319, N-(3-((R)-3-((S)-1-cyclohexylethyl)-6-(4-fluorophenyl)-2-oxo-1,3-oxazinan-6-yl)propyl)methanesulfonamide]",< 100 nM,93.4%,–,–
"CC(=O)C[C@]1(c2ccc(F)cc2)CCN([C@@H](C)c2ccc(OC(F)F)cc2)C(=O)O1 [EXAMPLE 321, (S)-3-((S)-1-(4-(difluoromethoxy)phenyl)ethyl)-6-(4-fluorophenyl)-6-(2-oxopropyl)-1,3-oxazinan-2-one]",< 100 nM,96.1%,–,–
"CC[C@@H](c1ccc(OC(F)F)cc1)N1CC[C@](CCC(N)=O)(c2ccc(F)cc2)OC1=O [EXAMPLE 326, 3-((R)-3-((S)-1-(4-(difluoromethoxy)phenyl)propyl)-6-(4-fluorophenyl)-2-oxo-1,3-oxazinan-6-yl)propanamide]",< 100 nM,97.7%,–,–
"C[C@@H](c1ccc(OC(F)F)cc1)N1CC[C@](CCO)(c2ccccc2)OC1=O [EXAMPLE 327, (S)-3-((S)-1-(4-(difluoromethoxy)phenyl)ethyl)-6-(2-hydroxyethyl)-6-phenyl-1,3-oxazinan-2-one]",< 100 nM,97.2%,–,–
"C[C@@H](c1ccc(OC(F)F)cc1)N1CC[C@](CCCO)(c2ccccc2)OC1=O [EXAMPLE 329, (R)-3-((S)-1-(4-(difluoromethoxy)phenyl)ethyl)-6-(3-hydroxypropyl)-6-phenyl-1,3-oxazinan-2-one]",< 100 nM,99.8%,–,–
"C[C@@H](c1ccc(OC(F)F)cc1)N1CC[C@](CCCNS(C)(=O)=O)(c2ccccc2)OC1=O [EXAMPLE 331, N-(3-((R)-3-((S)-1-(4-(difluoromethoxy)phenyl)ethyl)-2-oxo-6-phenyl-1,3-oxazinan-6-yl)propyl)methanesulfonamide]",< 100 nM,97.1%,–,–
"CC(C)(C)OC(=O)N1CCC[C@H](N2CC[C@](CCC(N)=O)(c3ccc(F)cc3)OC2=O)C1 [EXAMPLE 339, (S)-tert-butyl 3-((R)-6-(3-amino-3-oxopropyl)-6-(4-fluorophenyl)-2-oxo-1,3-oxazinan-3-yl)piperidine-1-carboxylate]",< 100 nM,65.9%,–,–
"O=C(OCc1ccccc1)N1CCC[C@H](N2CC[C@](CCCO)(c3ccc(F)cc3)OC2=O)C1 [EXAMPLE 340, (S)-benzyl 3-((R)-6-(4-fluorophenyl)-6-(3-hydroxypropyl)-2-oxo-1,3-oxazinan-3-yl)piperidine-1-carboxylate]",< 100 nM,–,75.9%,–
"O=C1O[C@@](CCCO)(c2ccc(F)cc2)CCN1[C@H]1CCCN(Cc2ccccc2)C1 [EXAMPLE 341, (R)-3-((S)-1-benzylpiperidin-3-yl)-6-(4-fluorophenyl)-6-(3-hydroxypropyl)-1,3-oxazinan-2-one]",–,–,82%,< 100 nM
"O=C1OC(CCCO)(c2ccc(F)cc2)CCN1Cc1ccc(Cl)cc1Cl (stereo not drawn) [EXAMPLE 343, 3-(2,4-dichlorobenzyl)-6-(4-fluorophenyl)-6-(3-hydroxypropyl)-1,3-oxazinan-2-one]",< 100 nM,–,82.3%,–
"C=CCC1(c2ccc(F)cc2)CCN(Cc2cc(Cl)ccc2Cl)C(=O)O1 (stereo not drawn) [EXAMPLE 344, 6-allyl-3-(2,5-dichlorobenzyl)-6-(4-fluorophenyl)-1,3-oxazinan-2-one]",< 100 nM,65.7%,–,–
"O=C1OC(CCCO)(c2ccc(F)cc2)CCN1Cc1cc(Cl)ccc1Cl (stereo not drawn) [EXAMPLE 345, 3-(2,5-dichlorobenzyl)-6-(4-fluorophenyl)-6-(3-hydroxypropyl)-1,3-oxazinan-2-one]",< 100 nM,74.7%,–,–
"C=CCC1(c2ccc(F)cc2)CCN(Cc2c(Cl)cccc2Cl)C(=O)O1 (stereo not drawn) [EXAMPLE 346, 6-allyl-3-(2,6-dichlorobenzyl)-6-(4-fluorophenyl)-1,3-oxazinan-2-one]",< 100 nM,94%,–,–
"CC(O)C[C@]1(c2ccc(F)cc2)CCN([C@@H](C)c2cccc(Br)c2)C(=O)O1 (stereo partly drawn) [EXAMPLE 355, (6S)-3-((S)-1-(3-bromophenyl)ethyl)-6-(4-fluorophenyl)-6-(2-hydroxypropyl)-1,3-oxazinan-2-one]",< 100 nM,–,95.5%,–
